Biological target: T1, MRP4 (Mus musculus, UniProt E9Q236)
T1 construct: Abcb1a/b; from tissue; host or cells: blood-brain barrier / brain of FVB mice (Abcb1a/b;Abcg2;Abcc4-/- versus other strains)
T1 sequence (E9Q236 1-1325): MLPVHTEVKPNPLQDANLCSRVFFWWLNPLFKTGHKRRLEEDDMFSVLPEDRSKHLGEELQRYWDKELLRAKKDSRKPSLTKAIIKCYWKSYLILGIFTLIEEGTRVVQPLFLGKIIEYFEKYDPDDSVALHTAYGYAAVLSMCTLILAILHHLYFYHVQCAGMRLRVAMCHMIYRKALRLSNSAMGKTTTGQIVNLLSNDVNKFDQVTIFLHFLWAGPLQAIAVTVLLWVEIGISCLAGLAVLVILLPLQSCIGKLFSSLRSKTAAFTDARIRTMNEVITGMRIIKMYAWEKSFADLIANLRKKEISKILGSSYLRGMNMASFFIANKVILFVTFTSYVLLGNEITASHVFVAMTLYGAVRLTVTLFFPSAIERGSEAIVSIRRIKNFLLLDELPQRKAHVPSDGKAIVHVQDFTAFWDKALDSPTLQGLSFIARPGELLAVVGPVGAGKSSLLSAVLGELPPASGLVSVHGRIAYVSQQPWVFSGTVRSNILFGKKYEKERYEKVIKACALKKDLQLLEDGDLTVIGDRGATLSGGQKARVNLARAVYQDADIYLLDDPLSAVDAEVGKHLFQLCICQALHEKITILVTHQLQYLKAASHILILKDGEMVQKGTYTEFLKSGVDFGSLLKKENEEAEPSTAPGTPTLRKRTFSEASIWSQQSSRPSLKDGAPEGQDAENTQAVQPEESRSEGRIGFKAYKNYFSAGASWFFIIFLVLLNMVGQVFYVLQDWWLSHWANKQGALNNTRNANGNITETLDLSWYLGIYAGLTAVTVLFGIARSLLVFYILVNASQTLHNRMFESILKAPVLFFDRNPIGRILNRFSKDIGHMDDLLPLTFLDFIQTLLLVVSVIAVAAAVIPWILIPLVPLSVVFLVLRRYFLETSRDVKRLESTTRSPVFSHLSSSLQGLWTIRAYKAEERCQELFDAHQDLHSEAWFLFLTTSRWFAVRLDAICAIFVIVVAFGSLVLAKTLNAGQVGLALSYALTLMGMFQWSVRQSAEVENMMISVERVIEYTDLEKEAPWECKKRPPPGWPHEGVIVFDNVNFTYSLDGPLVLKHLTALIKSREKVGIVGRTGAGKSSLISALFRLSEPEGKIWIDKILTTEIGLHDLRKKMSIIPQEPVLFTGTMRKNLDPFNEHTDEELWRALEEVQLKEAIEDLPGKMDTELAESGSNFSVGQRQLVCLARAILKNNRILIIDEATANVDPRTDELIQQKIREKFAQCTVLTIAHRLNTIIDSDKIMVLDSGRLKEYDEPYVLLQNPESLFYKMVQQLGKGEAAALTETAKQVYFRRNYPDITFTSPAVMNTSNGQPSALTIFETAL
Test: Brain penetration in Abcb1a/b;Abcg2;Abcc4-/- mice
Assay type: in vivo
Conditions: 1 h after 5 mg/kg i.v.
Description: The pharmacokinetics of NTRC 0066-0 were analyzed in wild-type (WT), Abcb1a/b^−/−, Abcg2^−/−, Abcb1a/b^−/−;Abcg2^−/− and Abcb1a/b^−/−;Abcg2^−/−;Abcc4^−/− FVB mice. All knockout mice strains have been developed at the Netherlands Cancer Institute. For i.v. administration, NTRC0066-0 was formulated in DMSO: Cremophor EL: saline (1:1:8 v/v) and injected at a dose of 5 mg/kg. For i.p and oral administration, NTRC0066-0 was administered at 5, 10 or 20 mg/kg as indicated. Serial blood sampling was done by tail vein bleeding at specific time points. At terminal time points, blood was drawn by cardiac puncture followed by tissue collection. Plasma was obtained from whole blood by centrifugation (5 min, 5,000 rpm, 4 °C) and tissues were weighed and homogenized using a FastPrep®-24 (MP-Biomedicals, NY) in 1% (w/v) bovine serum albumin (Sigma-Aldrich) in water.
NTRC 0066-0 was extracted from in vitro and in vivo samples using liquid–liquid extraction with diethyl ether. Another MPS-1 inhibitor, Compound 5 (Cpd-5), was added to the samples as an internal standard. The dried organic phase was reconstituted in 30% methanol in water (v/v). Samples were measured using an LC-MS/MS system comprising an UltiMate 3000 LC Systems (Dionex, Sunnyvale, CA) and an API 4000 mass spectrometer (Sciex, Framingham, MA). […]

CCc1cccc(CC)c1NC(=O)c1ccn2c1CCc1cnc(Nc3ccc(N4CCN(C)CC4)cc3OC)nc1-2 [NTRC 0066-0]
Brain concentration compared to Abcb1a/b-/- mice: did not display further increased

From publication PMC12909347, “Disconnect between in vitro and in vivo efficacy of the MPS1 inhibitor NTRC 0066-0 against glioblastoma” (Cellular Oncology, 2026)
